# Experimental data reported in US12084472B2 (Ardelyx, Inc., priority 2015, dated 2024).
# Molecular target: T1, human TGR5 (Homo sapiens, UniProt Q8TDU6)
# T1 construct: expressed in transfected cells; host or cells: HEK293
# T1 sequence (Q8TDU6 1-330): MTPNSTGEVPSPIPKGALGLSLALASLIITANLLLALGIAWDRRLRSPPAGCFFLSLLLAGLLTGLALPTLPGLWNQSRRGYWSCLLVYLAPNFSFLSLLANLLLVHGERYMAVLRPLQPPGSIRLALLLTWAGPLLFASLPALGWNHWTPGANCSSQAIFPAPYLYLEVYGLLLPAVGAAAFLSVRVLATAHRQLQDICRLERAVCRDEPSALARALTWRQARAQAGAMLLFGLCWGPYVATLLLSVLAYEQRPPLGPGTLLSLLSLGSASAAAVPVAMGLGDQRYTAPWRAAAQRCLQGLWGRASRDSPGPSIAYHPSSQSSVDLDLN
# Test: Cell-based TGR5 assay (cAMP generation, HTRF)
# Conditions: HEK293 cells stably transfected with human TGR5; cAMP by HTRF; 30 minutes at 37° C.; read-out: pEC50 Human TGR5 (converted)
# How it was run: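 First, compounds in 3-fold serial dilution were placed in HBSS with 10 mM HEPES pH 7.4 and 0.5 mM IBMX. Next, human TGR5-expressing HEK293 cells were added and incubated 30 min at 37° C. Finally, cAMP was detected by HTRF and pEC50 derived by logistic fitting.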
row,SMILES,EC50
1,"O=C(NCCCCc1ccc(Cl)c(CNC2(c3cnccc3-c3ccccc3OC3CC3)CC2)c1)NC[C@H](O)[C@@H](O)[C@H](O)[C@H](O)CO (stereo in doubt) [Compound I-241, 1-(4-{4-chloro-3-[({1-[4-(2-cyclopropoxyphenyl)pyridin-3-yl]cyclopropyl}amino)methyl]phenyl}butyl)-3-[(2S,3R,4R,5R)-2,3,4,5,6-pentahydroxyhexyl]urea]",126 to 1000 nM
2,"O=C(CCCCc1cc(Cl)c(COC2(c3cnccc3-c3ccccc3OC3CC3)CC2)cc1Cl)NCCOCCOCCOCCNC(=O)CCCCc1cc(Cl)c(COC2(c3cnccc3-c3ccccc3OC3CC3)CC2)cc1Cl [Compound I-90, N,N′-(((oxybis(ethane-2,1-diyl))bis(oxy))bis(ethane-2,1-diyl))bis(5-(2,5-dichloro-4-((1-(4-(2-cyclopropoxyphenyl)pyridin-3-yl)cyclopropoxy)methyl)phenyl)pentanamide)]",126 to 1000 nM
3,"CC(CCCC(=O)N1CCN(CCNC(=O)NC[C@H](O)[C@@H](O)[C@H](O)[C@H](O)CO)CC1)c1ccc(Cl)c(CNC2(c3cnccc3-c3ccccc3OC3CC3)CC2)c1 (stereo partly drawn) [Compound I-323, 1-{2-[4-(5-{4-chloro-3-[({1-[4-(2-cyclopropoxyphenyl)pyridin-3-yl]cyclopropyl}amino)methyl]phenyl}hexanoyl)piperazin-1-yl]ethyl}-3-[(2S,3R,4R,5R)-2,3,4,5,6-pentahydroxyhexyl]urea]",< 100 nM
4,"Cc1cc(COC2(c3cnccc3-c3ccccc3OC3CC3)CC2)c(C)cc1CCCCC(=O)N(C)C[C@H](O)[C@@H](O)[C@H](O)[C@H](O)CO [Compound I-230, 5-[4-({1-[4-(2-cyclopropoxyphenyl)pyridin-3-yl]cyclopropoxy}methyl)-2,5-dimethylphenyl]-N-methyl-N-[(2S,3R,4R,5R)-2,3,4,5,6-pentahydroxyhexyl]pentanamide]",< 100 nM
5,"O=C(/C=C/CC1CN(S(=O)(=O)c2ccc(Cl)c(COC3(c4cnccc4-c4ccccc4OC4CC4)CC3)c2)C1)NC[C@H](O)[C@@H](O)[C@H](O)[C@H](O)CO [Compound I-452, (2E)-4-{1-[4-chloro-3-({1-[4-(2-cyclopropoxyphenyl)pyridin-3-yl]cyclopropoxy}methyl)benzenesulfonyl]azetidin-3-yl}-N-[(2S,3R,4R,5R)-2,3,4,5,6-pentahydroxyhexyl]but-2-enamide]",< 100 nM
6,"COc1cc(C)c(CNC2(c3cnccc3-c3ccccc3OC3CC3)CC2)cc1C(C)C [Compound I-38, 1-[4-(2-cyclopropoxyphenyl)pyridin-3-yl]-N-{[4-methoxy-2-methyl-5-(propan-2-yl)phenyl]methyl}cyclopropan-1-amine]",126 to 1000 nM
7,"CSc1cnc(C)cc1CNC1(c2cnccc2-c2ccccc2OC2CC2)CC1 [Compound I-42, 1-[4-(2-cyclopropoxyphenyl)pyridin-3-yl]-N-{[2-methyl-5-(methylsulfanyl)pyridin-4-yl]methyl}cyclopropan-1-amine]",< 100 nM
8,"O=C([C@@H](O)[C@@H](O)[C@H](O)[C@@H](O)CO)N(CCCCSc1ccc(Cl)c(CNC2(c3cnccc3-c3ccccc3OC3CC3)CC2)c1)CC1CCOCC1 [Compound I-536, (2S,3S,4R,5S)-N-[4-({4-chloro-3-[({1-[4-(2-cyclopropoxyphenyl)pyridin-3-yl]cyclopropyl}amino)methyl]phenyl}sulfanyl)butyl]-2,3,4,5,6-pentahydroxy-N-(oxan-4-ylmethyl)hexanamide]",126 to 1000 nM
9,"Cc1ccc(C(C)CCCN(C)C(=O)[C@@H](O)[C@@H](O)[C@H](O)[C@@H](O)CO)cc1CNC1(c2cnccc2-c2ccccc2OC2CC2)CC1 (stereo partly drawn) [Compound I-301, (2S,3S,4R,5S)-N-(4-{3-[({1-[4-(2-cyclopropoxyphenyl)pyridin-3-yl]cyclopropyl}amino)methyl]-4-methylphenyl}pentyl)-2,3,4,5,6-pentahydroxy-N-methylhexanamide]",< 100 nM
10,"CC(C)(C)OCc1ccccc1-c1ccncc1C1(NCc2cc(Cl)ccc2Cl)CC1 [Compound I-13, 1-(4-{2-[(tert-butoxy)methyl]phenyl}pyridin-3-yl)-N-[(2,5-dichlorophenyl)methyl]cyclopropan-1-amine]",126 to 1000 nM
11,"CC(CCCC(=O)N(CCN(C)C)C[C@H](O)[C@@H](O)[C@H](O)[C@H](O)CO)c1ccc(Cl)c(CNC2(c3cnccc3-c3ccccc3OC3CC3)CC2)c1 (stereo partly drawn) [Compound I-337, 5-{4-chloro-3-[({1-[4-(2-cyclopropoxyphenyl)pyridin-3-yl]cyclopropyl}amino)methyl]phenyl}-N-[^2-(dimethylamino)ethyl]-N-[(2S,3R,4R,5R)-2,3,4,5,6-pentahydroxyhexyl]hexanamide]",126 to 1000 nM

# Results, then the molecule that gave them:
row,EC50,SMILES
1,< 100 nM,"O=C([C@@H](O)[C@@H](O)[C@H](O)[C@@H](O)CO)N(CCCCCO)CCCCCSc1ccc(Cl)c(CNC2(c3cnccc3-c3ccccc3OC3CC3)CC2)c1 [Compound I-601, (2S,3S,4R,5S)-N-[5-({4-chloro-3-[({1-[4-(2-cyclopropoxyphenyl)pyridin-3-yl]cyclopropyl}amino)methyl]phenyl}sulfanyl)pentyl]-2,3,4,5,6-pentahydroxy-N-(5-hydroxypentyl)hexanamide]"
2,126 to 1000 nM,"CS(=O)(=O)CCN(CCCSc1ccc(Cl)c(CNC2(c3cnccc3-c3ccccc3OC3CC3)CC2)c1)C(=O)[C@@H](O)[C@@H](O)[C@H](O)[C@@H](O)CO [Compound I-583, (2S,3S,4R,5S)-N-[3-({4-chloro-3-[({1-[4-(2-cyclopropoxyphenyl)pyridin-3-yl]cyclopropyl}amino)methyl]phenyl}sulfanyl)propyl]-2,3,4,5,6-pentahydroxy-N-(2-methanesulfonylethyl) hexanamide]"
3,126 to 1000 nM,"CS(=O)(=O)NCCCN(CCCCSc1ccc(Cl)c(CNC2(c3cnccc3-c3ccccc3OC3CC3)CC2)c1)C(=O)[C@@H](O)[C@@H](O)[C@H](O)[C@@H](O)CO [Compound I-591, (2S,3S,4R,5S)-N-[4-({4-chloro-3-[({1-[4-(2-cyclopropoxyphenyl)pyridin-3-yl]cyclopropyl}amino)methyl]phenyl}sulfanyl)butyl]-2,3,4,5,6-pentahydroxy-N-(3-methanesulfonamidopropyl) hexanamide]"
4,126 to 1000 nM,"CCC(=O)OC[C@H](NC(=O)NCCCCN(C)S(=O)(=O)c1ccc(Cl)c(COC2(c3cnccc3-c3ccccc3OC3CC3)CC2)c1)[C@@H](OC(=O)CC)[C@H](OC(=O)CC)[C@@H](COC(=O)CC)OC(=O)CC [Compound I-738, (2R,3S,4R,5S)-5-[[(4-[N-methyl[4-chloro-3-([1-[4-(2-cyclopropoxyphenyl)pyridin-3-yl]cyclopropoxy]methyl)benzene]sulfonamido]butyl)carbamoyl]amino]-1,2,4,6-tetrakis(propanoyloxy)hexan-3-yl propanoate]"
5,126 to 1000 nM,"Cc1ccc(SCCCN(CCCS(C)(=O)=O)C(=O)[C@@H](O)[C@@H](O)[C@H](O)[C@@H](O)CO)cc1CNC1(c2cnccc2-c2ccccc2OC2CC2)CC1 [Compound I-544, (2S,3S,4R,5S)-N-[3-({3-[({1-[4-(2-cyclopropoxyphenyl)pyridin-3-yl]cyclopropyl}amino)methyl]-4-methylphenyl}sulfanyl)propyl]-2,3,4,5,6-pentahydroxy-N-(3-methanesulfonylpropyl) hexanamide]"
